Results on eleven molecules are retold here after PMC7790557, “Pleiotropic Properties of Amphiphilic Dihydropyridines, Dihydropyridones, and Aminovinylcarbonyl Compounds” (Oxidative Medicine and Cellular Longevity, 2020).

SMILES strings stand for the structures. Like-named read-outs stand apart in the source and are kept apart here.

Data set [1] deals with HT-1080 (human lung fibrosarcoma). The experiment in a line: Cytotoxicity, MTT assay, HT-1080. It counts as cell-based. The note with it: Homo sapiens, read-out: HT-1080 IC50 (MTT). The source says: (§1) Reduction takes place only when mitochondrial reductase enzymes are active, and therefore, conversion is directly related to the number of viable cells which can be quantified by the absorbance of the solution (between λ = 500 and 600 nm) using a spectrophotometer.

In data set [2] the test system is MH-22A (mouse hepatoma). The experiment in a line: Cytotoxicity, crystal violet (CV) assay, MH-22A. It counts as cell-based. Conditions: Mus musculus, read-out: MH-22A IC50 (CV). Here is the method:
(§2) After incubation, the staining solution was removed. The cells were washed 4 times with water.

The subject of data set [3] is MH-22A (mouse hepatoma). The experiment in a line: Cytotoxicity, MTT assay, MH-22A. It counts as cell-based. The note with it: Mus musculus, read-out: MH-22A IC50 (MTT).
Source text: as §1

A short description of a further data set: in vitro. It counts as cell-based. Conditions: human and mouse; summarises both cell lines, CV and MTT; read-out: cytotoxicity on cancer cell lines HT-1080 and MH-22A. The procedure:
as §2

The test system of data set [4] is HT-1080 (human lung fibrosarcoma). The experiment in a line: Cytotoxicity, crystal violet (CV) assay, HT-1080. Conditions: Homo sapiens, HT-1080, 72 h, read-out: HT-1080 IC50 (CV).
Data set [5] has as its system NIH3T3 (mouse embryonic fibroblast). Put plainly: Basal cytotoxicity test, Neutral Red Uptake (NRU) assay. The note with it: for IC50: Mus musculus.
Method: The NRU cytotoxicity assay procedure is based on the ability of viable cells to incorporate and bind neutral red, a supravital dye.
Balb/c NIH 3T3 (mouse Swiss albino embryo fibroblast, ATCC® CRL-1658™) cells (9000 cells/well) were placed into 96-well plates for 24 h in Dulbecco's modified Eagle's medium (DMEM) containing 5% fetal bovine serum. Then, the cells were exposed to the test compound over a range of seven concentrations (1000, 316, 100, 31, 10, 3, and 1 μg/ml) for 24 h. Untreated cells were used as a control. After 24 h, the medium was removed from all plates. Then, 150 μl of neutral red solution was added (0.05 mg/ml NR in DMEM 24 h preincubated at 37°C and then filtered before use through a 0.22 μm syringe filter). Plates were incubated for 3 h, and then, the cells were washed three times with PBS. The dye within viable cells was released by extraction with a mixture of acetic acid, ethanol, and water (1 : 50 : 49). The absorbance of neutral red was measured using a spectrophotometer multiplate reader (Tecan Infinite M1000) at 540 nm. The optical density (OD) was calculated using the following formula: OD (treated cells) × 100/OD (control cells). The IC50 values were calculated using the GraphPad Prism® 3.0 program.
Data set [6] can be described thus: Cytotoxicity, crystal violet (CV) assay, HT-1080. The note with it: human, HT-1080 cells (fibrosarcoma).
The next data set has as its system NIH3T3. Put plainly: in vitro. The note with it: for LD50 (calculated, NIH3T3): mouse. The source says: Data from the in vitro tests were used for estimating the starting dose for acute oral systemic toxicity tests in the rodent. The in vivo starting dose is an estimated LD50 value calculated by inserting the in vitroIC50 value into a regression formula: log LD50 (mM/kg) = 0.439 log IC50 (mM) + 0.621 [23–25]. […] Using an alternative in vitro method allows the comparison between possibly toxic new compounds and selecting compounds for further study vastly reducing the number of animal experiments.
Additionally, the compound influence on “normal” mouse fibroblasts (NIH3T3) was estimated for the studies of structure-activity relationships and exploration of the effect of substituents.

Data set [7] is described as follows: Electrochemical oxidation potentials, cyclic voltammetry. It counts as physicochemical. Conditions: glassy carbon electrode, dry acetonitrile; for Oxidation potential E^ox: Table 4, vs Ag/Ag+, 0.1 M TBABF4, tested as perchlorates; for electrooxidation potential: cyclic voltammetry. The procedure:
A stationary glassy carbon disk electrode (d = 0.5 mm) served as the working electrode, while the counterelectrode was a Pt wire. The oxidation potentials were measured relative to a Ag/Ag^+ reference electrode. Acetonitrile was dried over P2O5 and distilled; the distillate was stored over CaH2 and redistilled just before use. Recrystallized tetrabutylammonium tetrafluoroborate (TBABF4) was used as a supporting electrolyte at 0.1 M concentration.
The electrochemical oxidation of the selected compounds studied in this work was performed by cyclic voltammetry on a stationary glassy carbon electrode in dry acetonitrile; the data is presented in Table 4. The perchlorates of the tested amphiphiles were obtained from the corresponding bromides by treating their abs. MeOH solutions with excess of conc. HClO4 according to the procedure elaborated by Turovska et al..

Where [8] appears, read: HT-1080, Table 1, 72 h exposure.
Setting [9] is: NIH3T3, 24 h, read-out: NIH3T3 IC50 (NR), Table 1, 24 h exposure.
Where [10] appears, read: NIH3T3, 24 h, read-out: NIH3T3 IC50 (NR).

In the case of `CCCCCCCCCCCCOC(=O)C1=C(C[N+](C)(C)C2CCCCC2)NC(C[N+](C)(C)C2CCCCC2)=C(C(=O)OCCCCCCCCCCCC)C1c1ccccc1.[O-][Cl+3]([O-])([O-])[O-].[O-][Cl+3]([O-])([O-])[O-]` [compound 17, N,N'-((3,5-Bis((dodecyloxy)carbonyl)-4-phenyl-1,4-dihydropyridine-2,6-diyl)bis(methylene))bis(N,N-dimethylcyclohexanaminium) diperchlorate], the IC50 is 23 ± 3 µg/mL in data set [1] (setting [8]); 54 ± 16 µg/mL in the data set with MH-22A (mouse hepatoma) [2] (Table 1, 72 h exposure); 35 ± 9 µg/mL in the data set with MH-22A (mouse hepatoma) [3] (Table 1, 72 h exposure); 23 to 54 µg/mL in “in vitro”; 35 ± 9 µg/mL in [4]; 59 ± 12 µg/mL in [5] (setting [9]).

`CCCCCCCCCCCCOC(=O)C1=C(C[n+]2ccccc2)NC(C[n+]2ccccc2)=C(C(=O)OCCCCCCCCCCCC)C1c1ccccc1` [compound 11, 1,1'-((3,5-Bis((dodecyloxy)carbonyl)-4-phenyl-1,4-dihydropyridine-2,6-diyl)bis(methylene))bis(pyridin-1-ium) ditetrafluoroborate]: the IC50 in data set [1] (setting [8]) turned out to be 28 ± 9 µg/mL; with MH-22A (mouse hepatoma) [2] (Table 1, 72 h exposure) it was 30 ± 6 µg/mL; in the data set on MH-22A (mouse hepatoma) [3] (Table 1, 72 h exposure), 30 ± 9 µg/mL; in data set [4] it was 31 ± 4 µg/mL; in [5] (setting [9]), 47 ± 8 µg/mL. In addition, in [6], the IC50 at 72 h is roughly 30 µg/mL.

Take `O=C1CC(c2ccccc2)C(C(=O)OCCCCC(F)(F)C(F)(F)C(F)(F)C(F)(F)C(F)(F)C(F)(F)C(F)(F)C(F)(F)F)=C([P+](c2ccccc2)(c2ccccc2)c2ccccc2)N1.[Br-]` (stereo not drawn) [compound 30, (3-(((5,5,6,6,7,7,8,8,9,9,10,10,11,11,12,12,12-Heptadecafluorododecyl)oxy)carbonyl)-6-oxo-4-phenyl-1,4,5,6-tetrahydropyridin-2-yl)triphenylphosphonium bromide]: the IC50 came out at 9 ± 2 µg/mL in data set [1] (HT-1080, Table 2, 72 h exposure); 30 ± 11 µg/mL in the data set with MH-22A (mouse hepatoma) [2] (Table 2, 72 h exposure); 39 ± 5 µg/mL with MH-22A (mouse hepatoma) [3] (Table 2, 72 h exposure); 10 ± 2 µg/mL in [4]; 127 ± 11 µg/mL in [5] (NIH3T3, 24 h, read-out: NIH3T3 IC50 (NR), Table 2, 24 h exposure). In addition, the “times less cytotoxic than dihydropyridone 31 in the NIH3T3 cells” value in the data set with NIH3T3 (from LD50 1779 mg/kg versus 604 mg/kg) is listed as “about 3 times”.

As for `CCOC(=O)C1=C(C[n+]2ccc(C)cc2)NC(C[n+]2ccc(C)cc2)=C(C(=O)OCC)C1c1ccccc1.[Br-].[Br-]` [compound 2, 1,1'-((3,5-Bis(ethoxycarbonyl)-4-phenyl-1,4-dihydropyridine-2,6-diyl)bis(methylene))-bis(4-methylpyridin-1-ium) dibromide], the IC50 in [1] (setting [8]) was greater than 740 µg/mL; with MH-22A (mouse hepatoma) [2] (Table 1, 72 h exposure), greater than 100 µg/mL; with MH-22A (mouse hepatoma) [3] (Table 1, 72 h exposure) it was greater than 100 µg/mL; in data set [4], greater than 100 µg/mL; in [5] (setting [10]) it was greater than 1000 µg/mL. Besides, the “LD50 (calculated, NIH3T3)” value with NIH3T3 is given as greater than 2000 mg/kg.

With `CCOC(=O)C1=C(C[n+]2ccccc2)NC(C[n+]2ccccc2)=C(C(=O)OCC)C1C(=O)OC.[Br-].[Br-]` [compound 8, 1,1'-((3,5-Bis(ethoxycarbonyl)-4-(methoxycarbonyl)-1,4-dihydropyridine-2,6-diyl)-bis(methylene))bis(pyridin-1-ium) dibromide], the IC50 in [1] (setting [8]) was greater than 100 µg/mL; with MH-22A (mouse hepatoma) [2] (Table 1, 72 h exposure), greater than 100 µg/mL; in the data set with MH-22A (mouse hepatoma) [3] (Table 1, 72 h exposure) it was greater than 100 µg/mL; in [4], greater than 100 µg/mL; in data set [5] (setting [10]), greater than 1000 µg/mL. For the same molecule, in the data set with NIH3T3, the “LD50 (calculated, NIH3T3)” value is recorded as greater than 2000 mg/kg.

Take `CCCOCOC(=O)C1=C(C[n+]2ccccc2)NC(C[n+]2ccccc2)=C(C(=O)OCOCCC)C1c1ccccc1OC(F)F.[Br-].[Br-]` [compound 7, 1,1'-((4-(2-(Difluoromethoxy)phenyl)-3,5-bis((propoxymethoxy)carbonyl)-1,4-dihydropyridine-2,6-diyl)bis(methylene))bis(pyridin-1-ium) dibromide]: the IC50 is greater than 100 µg/mL in data set [1] (setting [8]); greater than 100 µg/mL in the data set with MH-22A (mouse hepatoma) [2] (Table 1, 72 h exposure); greater than 100 µg/mL in the data set with MH-22A (mouse hepatoma) [3] (Table 1, 72 h exposure); greater than 100 µg/mL in data set [4]; greater than 1000 µg/mL in [5] (setting [10]). The “LD50 (calculated, NIH3T3)” value with NIH3T3 is reported as greater than 2000 mg/kg.

`O=C(OCCCCC(F)(F)C(F)(F)C(F)(F)C(F)(F)C(F)(F)C(F)(F)C(F)(F)C(F)(F)F)C1=C(C[n+]2ccccc2)NC(C[n+]2ccccc2)=C(C(=O)OCCCCC(F)(F)C(F)(F)C(F)(F)C(F)(F)C(F)(F)C(F)(F)C(F)(F)C(F)(F)F)C1c1ccccc1` [compound 24, Bis(5,5,6,6,7,7,8,8,9,9,10,10,11,11,12,12,12-heptadecafluorododecyl) 1,4-dihydro-2,6-dimethyl-4-phenylpyridine-3,5-dicarboxylate-2,6-dipyridinium bromide]: the IC50 in data set [1] (setting [8]) is 100 ± 9 µg/mL; in the data set with MH-22A (mouse hepatoma) [2] (Table 1, 72 h exposure), greater than 100 µg/mL; in the data set with MH-22A (mouse hepatoma) [3] (Table 1, 72 h exposure), greater than 100 µg/mL; in the data set “in vitro”, roughly 100 µg/mL; in [4], 100 ± 11 µg/mL; in data set [5] (setting [9]), greater than 1000 µg/mL. Further, the “Oxidation potential E^ox” value in data set [7] came out at 1.69 V. The electrooxidation potential in data set [7] was 1.69–1.70 V.

For the molecule `CCOC(=O)C1=C(C[n+]2cccc(C)c2)NC(C[n+]2cccc(C)c2)=C(C(=O)OCC)C1c1ccccc1.[Br-].[Br-]` [compound 5, 1,1'-((3,5-Bis(ethoxycarbonyl)-4-phenyl-1,4-dihydropyridine-2,6-diyl)bis(methylene))-bis(3-methylpyridin-1-ium) dibromide], the IC50 is greater than 740 µg/mL in [1] (setting [8]); greater than 100 µg/mL in the data set on MH-22A (mouse hepatoma) [3] (Table 1, 72 h exposure); greater than 1000 µg/mL in [5] (setting [10]). Also, the “LD50 (calculated, NIH3T3)” value in the data set with NIH3T3 was greater than 2000 mg/kg.

`CCCCCCCCCCCCOC(=O)C1=C(C[n+]2ccccc2)NC(C[n+]2ccccc2)=C(C(=O)OCCCCCCCCCCCC)C1c1ccc(C2C(C(=O)OCCCCCCCCCCCC)=C(C[n+]3ccccc3)NC(C[n+]3ccccc3)=C2C(=O)OCCCCCCCCCCCC)cc1.[Br-].[Br-].[Br-].[Br-]` [compound 26, 1,1',1'',1'''-((1,4-Phenylenebis(3,5-bis((dodecyloxy)carbonyl)-1,4-dihydropyridine-4,2,6-triyl))tetrakis(methylene))tetrakis(pyridin-1-ium) tetrabromide]: the IC50 came to 14 ± 2 µg/mL in [1] (HT-1080, 72 h); 27 ± 6 µg/mL in the data set on MH-22A (mouse hepatoma) [2] (72 h); 21 ± 4 µg/mL with MH-22A (mouse hepatoma) [3] (72 h); 12 ± 4 µg/mL in data set [4]; 717 ± 56 µg/mL in [5] (setting [10]). For the same molecule, the IC50 at 72 h in the data set “in vitro” was 12 to 27 µg/mL.

In the case of `CCCCCCCCCCCCCCCCOC(=O)/C=C(\N)C[N+](C)(C)CCCCCCCCCCCC` [compound 44, (Z,E)-N-(2-Amino-4-(hexadecyloxy)-4-oxobut-2-en-1-yl)-N,N-dimethyldodecan-1-aminium bromide], the IC50 in data set [1] (HT-1080, Table 3, 72 h exposure) is 3 ± 0.3 µg/mL; in the data set with MH-22A (mouse hepatoma) [2] (Table 3, 72 h exposure) it was 25 ± 3 µg/mL; in the data set on MH-22A (mouse hepatoma) [3] (Table 3, 72 h exposure), 28 ± 6 µg/mL; in data set [4], 3 ± 0.4 µg/mL; in data set [5] (NIH3T3, read-out: IC50 in NIH3T3 cell lines), roughly 30 µg/mL. In addition, the “NIH3T3 LD50” value in the data set on NIH3T3 (Table 3, calculated from NIH3T3 IC50 by regression formula) is 697 mg/kg. Besides, in data set [7], the “Oxidation potential E^ox” value is given as 1.24 V. In data set [7], this molecule returned an electrooxidation potential of 1.24 V. In addition, the “NIH3T3 IC50 (NR)” value in data set [5] (Table 3, 24 h exposure) turned out to be 31 ± 8 µg/mL.

On to `CCOC(=O)C1=C(C[n+]2ccccc2)NC(C[n+]2ccccc2)=C(C(=O)OCC)C1c1ccccc1C(F)(F)F.[Br-].[Br-]` [compound 6, 1,1'-((3,5-Bis(ethoxycarbonyl)-4-(2-(trifluoromethyl)phenyl)-1,4-dihydropyridine-2,6-diyl)bis(methylene))bis(pyridin-1-ium) dibromide], for which the IC50 in [1] (setting [8]) was greater than 100 µg/mL; in the data set on MH-22A (mouse hepatoma) [2] (Table 1, 72 h exposure), greater than 100 µg/mL; in the data set on MH-22A (mouse hepatoma) [3] (Table 1, 72 h exposure), greater than 100 µg/mL; in data set [4] it was greater than 100 µg/mL; in [5] (setting [10]), greater than 1000 µg/mL. The “LD50 (calculated, NIH3T3)” value in the data set with NIH3T3 was greater than 2000 mg/kg.
